Biological target: T1, human TLR8 (Homo sapiens, UniProt Q9NR97)
T1 sequence (Q9NR97 27-1041): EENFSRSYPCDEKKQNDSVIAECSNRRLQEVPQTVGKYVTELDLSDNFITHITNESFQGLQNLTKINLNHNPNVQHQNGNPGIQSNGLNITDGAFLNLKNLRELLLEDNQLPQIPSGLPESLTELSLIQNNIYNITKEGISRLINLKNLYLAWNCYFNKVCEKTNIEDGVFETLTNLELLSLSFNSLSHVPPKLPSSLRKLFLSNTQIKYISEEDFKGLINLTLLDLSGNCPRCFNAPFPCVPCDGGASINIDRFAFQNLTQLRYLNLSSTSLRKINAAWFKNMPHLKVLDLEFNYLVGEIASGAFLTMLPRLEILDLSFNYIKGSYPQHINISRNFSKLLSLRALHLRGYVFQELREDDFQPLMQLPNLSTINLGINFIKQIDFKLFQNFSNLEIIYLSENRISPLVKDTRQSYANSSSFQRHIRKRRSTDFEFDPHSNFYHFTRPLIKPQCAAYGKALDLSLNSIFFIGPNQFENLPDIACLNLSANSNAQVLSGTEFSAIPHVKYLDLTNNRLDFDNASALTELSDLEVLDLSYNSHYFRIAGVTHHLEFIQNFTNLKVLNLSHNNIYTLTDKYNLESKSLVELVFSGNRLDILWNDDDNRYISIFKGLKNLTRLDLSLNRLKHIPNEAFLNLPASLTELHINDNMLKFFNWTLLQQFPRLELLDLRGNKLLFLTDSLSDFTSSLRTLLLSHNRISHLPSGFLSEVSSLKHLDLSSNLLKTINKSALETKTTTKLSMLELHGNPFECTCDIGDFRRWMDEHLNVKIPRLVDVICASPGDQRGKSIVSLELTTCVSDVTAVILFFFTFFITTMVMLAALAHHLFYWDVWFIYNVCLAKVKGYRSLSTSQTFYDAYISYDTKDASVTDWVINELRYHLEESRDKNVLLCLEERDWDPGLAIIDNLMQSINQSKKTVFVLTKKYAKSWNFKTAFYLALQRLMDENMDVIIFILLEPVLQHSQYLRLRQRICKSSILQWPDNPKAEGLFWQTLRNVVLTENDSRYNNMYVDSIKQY
Test: HEK293-Blue-hTLR-8 cells assay (SEAP reporter, R848 stimulation)
Assay type: cell-based
Conditions: HEK293-Blue-hTLR8 cells, R848, 20 hrs; 0.003 is the lowest tested concentration; read-out: HEK/hTLR8 IC50
In short: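 Antagonist mode: HEK293-Blue-hTLR8 cells at 250,000–450,000 cells/mL in DMEM with 10% FBS were treated with serially diluted compound (1% DMSO final) plus R848 (10 µL of 60 µM stock) for 20 h at 37 °C. NF-κB/AP-1-driven SEAP in supernatant measured with QUANTI-Blue, 2 h at 37 °C, absorbance 620–655 nm.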

Structure (SMILES)	IC50
C[C@@H]1CN(c2ccc(C#N)n3ncc(F)c23)C[C@H](CN2CCc3cc(N4CCNCC4)ccc3C2)O1 [Example 14, 3-fluoro-4-[(2R,6S)-2-methyl-6-[(6-piperazin-1-yl-3,4-dihydro-1H-isoquinolin-2-yl)methyl]morpholin-4-yl]pyrazolo[1,5-a]pyridine-7-carbonitrile]	29 nM
C[C@@H]1CN(c2ccc(C#N)c3ncccc23)C[C@H](CN2Cc3ccc(N4C5CCC4CNC5)cc3C2)O1 [Example 43, 5-[(2S,6R)-2-[[5-(3,8-diazabicyclo[3.2.1]octan-8-yl)isoindolin-2-yl]methyl]-6-methyl-morpholin-4-yl]quinoline-8-carbonitrile]	12 nM
C[C@@H]1CN(c2ccc(C#N)n3nccc23)C[C@H](CN2Cc3ccc(OCCN(C)C)cc3C2)O1 [Example 28, 4-[(2S,6R)-2-[[5-[2-(dimethylamino)ethoxy]isoindolin-2-yl]methyl]-6-methyl-morpholin-4-yl]pyrazolo[1,5-a]pyridine-7-carbonitrile]	58 nM

Results, then the compound that gave them:

IC50	Structure (SMILES)
14 nM	C[C@@H]1CN(c2ccc(C#N)n3ncc(F)c23)C[C@H](CN2Cc3cc(N4CCNCC4)cnc3C2)O1 [Example 29, 3-fluoro-4-[(2R,6S)-2-methyl-6-[(3-piperazin-1-yl-5,7-dihydropyrrolo[3,4-b]pyridin-6-yl)methyl]morpholin-4-yl]pyrazolo[1,5-a]pyridine-7-carbonitrile]
10 nM	C[C@@H]1CN(c2ccc(C#N)c3ncccc23)C[C@H](CN2Cc3ccc(N4CCNCC4CO)cc3C2)O1 (stereo partly drawn) [Example 73, 5-[(2S,6R)-2-[[5-[2-(hydroxymethyl)piperazin-1-yl]isoindolin-2-yl]methyl]-6-methyl-morpholin-4-yl]quinoline-8-carbonitrile]

From patent EP3623369A1, “NOVEL MORPHOLINYL AMINE COMPOUNDS FOR THE TREATMENT OF AUTOIMMUNE DISEASE” (F. Hoffmann-La Roche AG, priority 2018, dated 2020)
